Test system: Penicillium digitatum (Pd)
Assay: Biocontrol efficacy on post-harvest green mold decay of harvested oranges (online spraying, drying tunnel, storage)
Assay type: in vivo
Settings: online spraying at 2 L/tonne of fruits, dried in drying tunnel, observed 36 days after storage, amounts per treatment as in Table 1
Protocol: A tank mix bio-control combination was prepared consisting of Candida oleophila strain O and sodium bicarbonate. […] The microbial component was applied as water dispersible granules. The concentration of C. oleophila strain O was 2.33 g/L (0.23% w/v) and the biologically effective amount of the strain was 3×10^10 cfu/gm. The concentration of the C. oleophila strain O used was varying between 0.1 to 5% w/v of the combination.
The biocontrol efficacy of the combination of the present invention on post-harvest fungal disease caused by green mold was evaluated. […] The harvested oranges were treated with the biocontrol combination and then subjected to drying in a drying tunnel. […] The oranges were treated by online spraying of each treatment. The biologically effective amount of Candida oleophila is 3×10^10 cfu/g of the combination. Each application is made at a rate 2 L/tonne of citrus fruits. The observations were made on the treated oranges and the untreated control at 36 days after storage.

With O=C([O-])O.[Na+] [Sodium bicarbonate] the “% decay on fruits” value was 15%.

From patent US20250143289A1, “BIO-CONTROL COMBINATIONS, COMPOSITIONS AND METHOD OF USE” (DECCO WORLDWIDE POST-HARVEST HOLDINGS B.V., priority 2022, published 2025)
